Reference: the supplement of paper PMC10307832

Columns and labels:
Experiment in all cases: relative viability (nuclei count vs DMSO), 5 days (fraction); higher = more cells survive
VX-11e + Bortezomib = compound: CC1=CN=C(N=C1C2=CNC(=C2)C(=O)N[C@H](CO)C3=CC(=CC=C3)Cl)NC4=C(C=C(C=C4)F)Cl [VX-11e] + CC(C)C[C@H](NC(=O)[C@H](Cc1ccccc1)NC(=O)c1cnccn1)B(O)O [Bortezomib] (partner 0.002 µM)
Summary of the method: (§1)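 Relative viability was taken as the ratio of nuclei in treated wells to nuclei in vehicle wells. Lung cancer cell lines in 1536-well plates received compounds by pin tool one day after seeding, either one drug alone or a fixed anchor-drug dose plus five library-drug doses (not always all listed) in √10 steps. Nuclei were counted on 4× images after 5 days of treatment, and values are medians of duplicate plates.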

VX-11e + Pemetrexed = compound: CC1=CN=C(N=C1C2=CNC(=C2)C(=O)N[C@H](CO)C3=CC(=CC=C3)Cl)NC4=C(C=C(C=C4)F)Cl [VX-11e] + Nc1nc2[nH]cc(CCc3ccc(C(=O)N[C@@H](CCC(=O)O)C(=O)O)cc3)c2c(=O)[nH]1 [Pemetrexed] (partner 0.2 µM)
Summary of the method: as §1

VX-11e + Alpelisib = compound: CC1=CN=C(N=C1C2=CNC(=C2)C(=O)N[C@H](CO)C3=CC(=CC=C3)Cl)NC4=C(C=C(C=C4)F)Cl [VX-11e] + Cc1nc(NC(=O)N2CCC[C@H]2C(N)=O)sc1-c1ccnc(C(C)(C)C(F)(F)F)c1 [Alpelisib] (partner 2 µM)
Summary of the method: as §1

VX-11e + Olaparib = compound: CC1=CN=C(N=C1C2=CNC(=C2)C(=O)N[C@H](CO)C3=CC(=CC=C3)Cl)NC4=C(C=C(C=C4)F)Cl [VX-11e] + O=C(c1cc(Cc2n[nH]c(=O)c3ccccc23)ccc1F)N1CCN(C(=O)C2CC2)CC1 [Olaparib] (partner 8 µM)
Summary of the method: as §1

Row | Cell Line | relative viability (VX-11e + Bortezomib; first compound 0.04 µM) | relative viability (VX-11e + Bortezomib; first compound 0.1265 µM) | relative viability (VX-11e + Bortezomib; first compound 0.4 µM) | relative viability (VX-11e + Bortezomib; first compound 1.265 µM) | relative viability (VX-11e + Bortezomib; first compound 4 µM) | relative viability (VX-11e + Pemetrexed; first compound 0.04 µM) | relative viability (VX-11e + Pemetrexed; first compound 0.1265 µM) | relative viability (VX-11e + Pemetrexed; first compound 0.4 µM) | relative viability (VX-11e + Pemetrexed; first compound 1.265 µM) | relative viability (VX-11e + Pemetrexed; first compound 4 µM) | relative viability (VX-11e + Alpelisib; first compound 0.04 µM) | relative viability (VX-11e + Alpelisib; first compound 0.1265 µM) | relative viability (VX-11e + Alpelisib; first compound 0.4 µM) | relative viability (VX-11e + Alpelisib; first compound 1.265 µM) | relative viability (VX-11e + Alpelisib; first compound 4 µM) | relative viability (VX-11e + Olaparib; first compound 0.04 µM) | relative viability (VX-11e + Olaparib; first compound 0.1265 µM) | relative viability (VX-11e + Olaparib; first compound 0.4 µM) | relative viability (VX-11e + Olaparib; first compound 1.265 µM) | relative viability (VX-11e + Olaparib; first compound 4 µM)
1 | 201T | 1.05 | 1.11 | 1.12 | 1.02 | 1.03 | 0.347 | 0.344 | 0.317 | 0.249 | 0.31 | 1.01 | 0.989 | 0.995 | 1.08 | 0.92 | 0.846 | 0.809 | 0.832 | 0.792 | 0.773
2 | A549 |  |  |  |  |  |  |  |  |  |  | 0.737 | 0.622 | 0.451 | 0.313 | 0.0519 | 0.237 | 0.246 | 0.0406 | 0.184 | 0.0866
3 | A-427 | 1.11 | 0.955 | 1.06 | 1.04 | 0.479 | 1.02 | 0.983 | 1.1 | 0.966 | 0.606 | 0.962 | 1.06 | 0.878 | 0.667 | 0.239 | 0.778 | 0.778 | 0.816 | 0.7 | 0.509
4 | ABC-1 | 0.268 | 0.246 | 0.262 | 0.263 | 0.263 |  |  |  |  |  | 0.988 | 0.735 | 0.832 | 0.857 | 0.725 | 1.22 |  | 0.667 | 0.771 | 0.926
5 | BEN | 0.543 | 0.779 | 0.942 | 0.533 | 0.725 | 0.491 | 0.69 | 0.875 | 0.582 | 0.629 | 1.14 | 0.906 | 1.04 | 0.612 | 0.806 | 1.04 | 0.935 | 1.11 | 0.904 | 0.994
6 | CAL-12T |  |  | 0.91 | 0.715 | 0.509 | 1.28 | 1.36 | 1.19 | 1.02 | 0.438 | 1.4 | 1.03 | 1.07 | 0.898 | 0.295 | 0.802 | 0.718 | 0.732 | 0.618 | 0.316
7 | COR-L23 | 1.29 | 0.967 | 1.12 | 0.667 | 0.348 | 0.236 | 0.196 | 0.213 | 0.217 | 0.179 | 0.913 | 0.742 | 0.669 | 0.379 | 0.17 | 0.445 | 0.463 | 0.486 | 0.491 | 0.207
8 | COR-L 105 | 0.814 | 0.826 | 0.6 | 0.338 | 0.226 | 1.11 | 0.905 | 0.921 | 0.93 | 0.527 | 0.929 | 0.973 | 0.799 | 0.329 | 0.357 | 0.666 | 0.694 | 0.708 | 0.839 | 0.396
9 | Calu-6 | 1.08 | 1.04 | 1.03 | 0.333 | 0.206 |  |  |  |  |  | 1.12 | 0.98 | 0.94 | 0.456 | 0.125 | 0.672 | 0.579 | 0.562 | 0.31 | 0.108
10 | ChaGo-K-1 | 1.01 |  | 1.11 | 0.759 | 0.772 | 0.268 | 0.261 | 0.248 | 0.25 | 0.234 |  |  |  |  |  | 0.451 | 0.473 | 0.416 | 0.43 | 0.378
11 | EBC-1 | 0.512 | 0.528 | 0.599 | 0.576 | 0.239 |  |  |  |  |  | 0.816 | 0.766 | 0.632 | 0.693 | 0.23 | 0.749 | 0.72 | 0.707 | 0.66 | 0.192
12 | EKVX | 1.06 | 0.977 | 0.951 | 1 | 0.406 | 0.314 | 0.444 | 0.33 | 0.383 | 0.225 | 0.953 | 0.869 | 0.984 | 0.752 | 0.335 | 0.836 | 0.834 | 0.713 | 0.94 | 0.451
13 | EMC-BAC-2 | 1.04 | 1.01 | 1.14 | 1.02 | 0.858 | 0.473 | 0.423 | 0.631 | 0.511 | 0.549 | 0.731 | 0.662 | 0.687 | 0.618 | 0.534 | 0.529 | 0.492 | 0.468 | 0.711 | 0.636
14 | EPLC-272H | 0.94 | 0.799 | 0.841 | 0.839 | 0.665 | 0.334 | 0.39 | 0.408 | 0.305 | 0.253 | 0.742 | 0.702 | 0.823 | 0.835 | 0.512 | 0.771 | 0.833 | 0.588 | 0.38 | 0.219
15 | H3255 | 0.709 | 0.857 | 0.657 | 0.612 | 0.64 | 0.478 | 0.565 | 0.523 | 0.513 | 0.47 | 0.662 | 0.617 | 0.436 | 0.688 | 0.562 | 0.582 | 0.544 | 0.496 | 0.552 | 0.497
16 | HARA | 0.992 | 1.08 | 1.13 | 0.507 | 0.803 | 0.253 | 0.236 | 0.26 | 0.186 | 0.131 | 0.772 | 0.776 | 0.787 | 0.865 | 0.338 | 0.893 | 0.705 | 0.939 | 0.295 | 0.525
17 | HCC-15 | 1.1 | 1.07 | 0.754 | 0.794 | 0.428 | 0.227 | 0.232 | 0.22 | 0.197 | 0.15 | 0.902 | 0.878 | 0.753 | 0.408 | 0.165 | 0.869 | 0.794 |  | 0.541 | 0.398
